Molecular target: T1, TRAP1 enzyme (Homo sapiens, UniProt Q12931)
T1 sequence (Q12931 60-704): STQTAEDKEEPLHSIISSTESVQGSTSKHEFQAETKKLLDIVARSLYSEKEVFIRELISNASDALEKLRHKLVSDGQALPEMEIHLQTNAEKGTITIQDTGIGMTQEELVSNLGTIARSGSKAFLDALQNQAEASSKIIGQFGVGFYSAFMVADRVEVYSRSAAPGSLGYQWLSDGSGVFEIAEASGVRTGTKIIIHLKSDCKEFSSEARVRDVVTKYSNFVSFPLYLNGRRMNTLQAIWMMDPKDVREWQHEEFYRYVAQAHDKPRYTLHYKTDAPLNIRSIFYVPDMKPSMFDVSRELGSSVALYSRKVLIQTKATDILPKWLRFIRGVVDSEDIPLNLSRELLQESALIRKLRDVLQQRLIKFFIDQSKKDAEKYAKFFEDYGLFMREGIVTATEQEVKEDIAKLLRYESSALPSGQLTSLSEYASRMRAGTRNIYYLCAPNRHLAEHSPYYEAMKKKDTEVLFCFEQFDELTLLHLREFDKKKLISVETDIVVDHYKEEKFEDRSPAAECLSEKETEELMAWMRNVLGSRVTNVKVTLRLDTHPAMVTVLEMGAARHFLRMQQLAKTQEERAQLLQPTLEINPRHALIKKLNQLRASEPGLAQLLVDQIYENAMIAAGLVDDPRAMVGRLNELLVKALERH
Assay: ADP Glo assay of TRAP1 ATPase activity
Format: biochemical
Details: for EC50: TRAP1 ATPase activation, 150 nM Trap1, 20 μM ATP, geometric mean, read-out: ADP GLO DRC: GeoMean EC50; for Emax: read-out: ADP GLO DRC: Mean Emax
Method: Potency of test compounds to modulate the ATPase activity of TRAP1 enzyme was evaluated using ADP Glo assay. The assay is based on quantification of the ADP generated from ATP in the ATPase reaction. The assay is performed in two steps: first, after the ATPase reaction, an equal volume of ADP-Glo™ Reagent is added to terminate the ATPase reaction and deplete the remaining ATP. Second, the Kinase Detection Reagent is added to simultaneously convert ADP to ATP and allow the newly synthesized ATP to be measured using a luciferase/luciferin reaction.
All the assays were carried out in a 384-well Proxiplate. The buffer used was 25 mM Pipes pH-7.5, 40 mM KCl, 0.05 mM MgCl2, 0.025% BSA, 0.316 mM EGTA, 0.003% Empigen, 0.01% Igepal. 150 nM Trap1 enzyme was incubated with various concentrations of the test compound (0.79 μM-100 μM) at 37° C. for 30 mins (except in blank wells). 20 μM ATP was added to each well to start the reaction. The plate was spun for 1 min at 1200 rpm and then incubated at 37° C. for 60 mins. 5 μl of ADP Glo reagent was added to all the wells and spun the plate for 1 min at 1200 rpm and kept it on a shaker at ambient temperature for 60 mins. 10 μl of kinase detection mix was added to all the wells and the plate was read for Luminescence at 495 nm. The amount of ADP released was estimated from ATP/ADP standard curve generated at the same experimental conditions. Emax (Maximal percent activation) and EC50 (concentration for half maximal activation) were estimated by fitting the dose response data to a sigmoidal curve fitting equation using Graphpad Prism software V. 8.

EC50 [µM] | Emax [%] | SMILES
< 10 | 160 to 199 | COc1ccc(NC(=O)c2ccc(N3CCCC3)c(F)c2)cc1S(=O)(=O)Nc1c(C)cccc1C [Compound 1004]
< 10 | 200 to 300 | COc1ccc(NC(=O)c2csc(C)c2C)cc1S(=O)(=O)Nc1c(C)cccc1C [Compound 1005]
20 to 100 | 123 to 159 | COc1ccc(NC(=O)c2ccc3c(c2)CCN3C)cc1S(=O)(=O)Nc1c(C)cccc1C [Compound 1008]
20 to 100 | 160 to 199 | COc1ccc(NC(=O)c2cc(C)n(C)c2)cc1S(=O)(=O)Nc1c(C)cccc1C [Compound 1009]
10 to 20 | 200 to 300 | COc1ccc(NC(=O)c2nn(C)c3c2CCC3)cc1S(=O)(=O)Nc1c(C)cccc1C [Compound 1010]
20 to 100 | 200 to 300 | COc1ccc(NC(=O)c2ncn(-c3cccc(F)c3)n2)cc1S(=O)(=O)Nc1c(C)cccc1C [Compound 1011]
< 10 | 123 to 159 | COc1ccc(NC(=O)c2ccc(C(F)(F)F)n2C)cc1S(=O)(=O)Nc1c(C)cccc1C [Compound 1013]
20 to 100 | 200 to 300 | COc1ccc(NC(=O)c2ccc3c(c2)C2CCCS2(=O)=N3)cc1S(=O)(=O)Nc1c(C)cccc1C (centres unmarked) [Compound 1016]
< 10 | 200 to 300 | COc1ccc(NC(=O)c2cccc3nc(C)sc23)cc1S(=O)(=O)Nc1c(C)cccc1C [Compound 1017]
10 to 20 | > 300 | CCc1cc(C(=O)Nc2ccc(OC)c(S(=O)(=O)Nc3c(C)cccc3C)c2)cc(C)n1 [Compound 1018]
< 10 | 160 to 199 | COc1ccc(NC(=O)c2ccc(-n3cccn3)cc2Cl)cc1S(=O)(=O)Nc1c(C)cccc1C [Compound 1019]
10 to 20 | 200 to 300 | COc1ccc(NC(=O)c2cc3cc(Br)cnc3s2)cc1S(=O)(=O)Nc1c(C)cccc1C [Compound 1020]
< 10 | 200 to 300 | COc1ccc(NC(=O)c2ccc(C)nc2OC)cc1S(=O)(=O)Nc1c(C)cccc1C [Compound 1021]
20 to 100 | 200 to 300 | COc1ccc(NC(=O)c2cnccc2-c2ccccc2)cc1S(=O)(=O)Nc1c(C)cccc1C [Compound 1022]
< 10 | 200 to 300 | COc1ccc(NC(=O)c2ccc3c(Br)nn(C)c3c2)cc1S(=O)(=O)Nc1c(C)cccc1C [Compound 1024]
10 to 20 | 160 to 199 | COc1ccc(NC(=O)c2ccccc2C2CC2)cc1S(=O)(=O)Nc1c(C)cccc1C [Compound 1028]
10 to 20 | > 300 | COc1ccc(NC(=O)c2ncn(Cc3ccccc3)n2)cc1S(=O)(=O)Nc1c(C)cccc1C [Compound 1029]
10 to 20 | 200 to 300 | COc1ccc(NC(=O)c2cc(-n3ccnc3)ccn2)cc1S(=O)(=O)Nc1c(C)cccc1C [Compound 1030]
10 to 20 | 200 to 300 | COc1ccc(NC(=O)c2cc(C3CC3)on2)cc1S(=O)(=O)Nc1c(C)cccc1C [Compound 1031]
< 10 | 200 to 300 | COc1ccc(NC(=O)c2cc(C(C)C)on2)cc1S(=O)(=O)Nc1c(C)cccc1C [Compound 1032]
< 10 | 160 to 199 | COc1ccc(NC(=O)c2ccc(F)c(-c3c(F)cccc3F)n2)cc1S(=O)(=O)Nc1c(C)cccc1C [Compound 1033]
< 10 | 160 to 199 | COc1ccc(NC(=O)c2cccc([C@H](F)c3cccc(F)c3)c2)cc1S(=O)(=O)Nc1c(C)cccc1C [Compound 1034]
< 10 | 123 to 159 | COc1ccc(NC(=O)c2cccc(Cc3ccc(F)cc3)c2)cc1S(=O)(=O)Nc1c(C)cccc1C [Compound 1036]

EC50 [µM] | Emax [%] | SMILES
20 to 100 | 160 to 199 | COc1ccc(NC(=O)c2c(C)cc(Cl)nc2Cl)cc1S(=O)(=O)Nc1c(C)cccc1C [Compound 1037]
20 to 100 | 160 to 199 | COc1ccc(NC(=O)c2ccnc(SC)n2)cc1S(=O)(=O)Nc1c(C)cccc1C [Compound 1039]
< 10 | 200 to 300 | COc1ccc(NC(=O)c2cccc3c2OC(C)(C)CC3)cc1S(=O)(=O)Nc1c(C)cccc1C [Compound 1040]
< 10 | 200 to 300 | COc1ccc(NC(=O)c2cc3ccncc3s2)cc1S(=O)(=O)Nc1c(C)cccc1C [Compound 1043]
10 to 20 | 123 to 159 | COc1ccc(NC(=O)c2cccnc2-c2ccc(C)cc2)cc1S(=O)(=O)Nc1c(C)cccc1C [Compound 1045]
20 to 100 | 160 to 199 | COc1ccc(NC(=O)c2cn(C(C)(C)C)nn2)cc1S(=O)(=O)Nc1c(C)cccc1C [Compound 1050]
20 to 100 | 160 to 199 | COc1ccc(NC(=O)c2ccc(C(C)(C)C)nc2)cc1S(=O)(=O)Nc1c(C)cccc1C [Compound 1052]
20 to 100 | 160 to 199 | COc1ccc(NC(=O)c2cccnc2-c2ccccc2C)cc1S(=O)(=O)Nc1c(C)cccc1C [Compound 1053]
20 to 100 | 123 to 159 | COc1ccc(NC(=O)c2onc3c2CCCC3)cc1S(=O)(=O)Nc1c(C)cccc1C [Compound 1056]
20 to 100 | 160 to 199 | COc1ccc(NC(=O)c2ccc(Cl)nc2C)cc1S(=O)(=O)Nc1c(C)cccc1C [Compound 1057]
< 10 | 200 to 300 | COc1ccc(NC(=O)c2cccc3ccn(C)c23)cc1S(=O)(=O)Nc1c(C)cccc1C [Compound 1060]
10 to 20 | 200 to 300 | COc1ccc(NC(=O)c2ccnn2-c2ccccc2)cc1S(=O)(=O)Nc1c(C)cccc1C [Compound 1061]
20 to 100 | 160 to 199 | COc1ccc(NC(=O)c2cc(Br)cnc2C)cc1S(=O)(=O)Nc1c(C)cccc1C [Compound 1062]
20 to 100 | > 300 | COc1ccc(NC(=O)c2ccc3nccnc3c2)cc1S(=O)(=O)Nc1c(C)cccc1C [Compound 1063]
20 to 100 | 200 to 300 | COc1ccc(NC(=O)c2cnc3ccoc3c2)cc1S(=O)(=O)Nc1c(C)cccc1C [Compound 1064]
< 10 | 123 to 159 | COc1ccc(NC(=O)c2cc(F)cc(Br)c2C)cc1S(=O)(=O)Nc1c(C)cccc1C [Compound 1065]
20 to 100 | 160 to 199 | COCCn1ccc(C(=O)Nc2ccc(OC)c(S(=O)(=O)Nc3c(C)cccc3C)c2)n1 [Compound 1066]
20 to 100 | 160 to 199 | COc1ccc(NC(=O)c2ccnc(Cl)c2C)cc1S(=O)(=O)Nc1c(C)cccc1C [Compound 1067]
< 10 | 200 to 300 | COc1ccc(NC(=O)c2cnn(Cc3ccccc3)c2)cc1S(=O)(=O)Nc1c(C)cccc1C [Compound 1068]
20 to 100 | 160 to 199 | COc1ccc(NC(=O)c2ncn(C(C)C)n2)cc1S(=O)(=O)Nc1c(C)cccc1C [Compound 1069]
< 10 | 200 to 300 | COc1ccc(NC(=O)c2cnc(Cl)s2)cc1S(=O)(=O)Nc1c(C)cccc1C [Compound 1070]
10 to 20 | 200 to 300 | COc1ccc(NC(=O)c2ccn(-c3ccccc3)n2)cc1S(=O)(=O)Nc1c(C)cccc1C [Compound 1071]
20 to 100 | 160 to 199 | COc1cnc(Cl)c(C(=O)Nc2ccc(OC)c(S(=O)(=O)Nc3c(C)cccc3C)c2)c1 [Compound 1072]

Reference: US20230174523A1, “BENZENESULFONAMIDE DERIVATIVES AS TRAP1 MODULATORS AND USES THEREOF” (Amathus Therapeutics, Inc., priority 2020, published 2023)
